Measurements reported in patent publication US6780994B2, “Phthalimido arylpiperazines useful in the treatment of benign prostatic hyperplasia” (Ortho-McNeil Pharmaceutical, Inc., priority 1998, dated 2004).

Legend:
α1b-AR = target: T1, α1b-AR (Homo sapiens, UniProt P35368); test: radioligand ([125I]-HEAT) receptor binding assay, COS cell membranes expressing cloned receptor; conditions: [125I]-HEAT 50 pM, 1 hour room temperature
T1 construct: expressed in transfected cells; host or cells: COS cells, pcDNA3 vector, transient DEAE-dextran transfection
T1 sequence (P35368 1-520): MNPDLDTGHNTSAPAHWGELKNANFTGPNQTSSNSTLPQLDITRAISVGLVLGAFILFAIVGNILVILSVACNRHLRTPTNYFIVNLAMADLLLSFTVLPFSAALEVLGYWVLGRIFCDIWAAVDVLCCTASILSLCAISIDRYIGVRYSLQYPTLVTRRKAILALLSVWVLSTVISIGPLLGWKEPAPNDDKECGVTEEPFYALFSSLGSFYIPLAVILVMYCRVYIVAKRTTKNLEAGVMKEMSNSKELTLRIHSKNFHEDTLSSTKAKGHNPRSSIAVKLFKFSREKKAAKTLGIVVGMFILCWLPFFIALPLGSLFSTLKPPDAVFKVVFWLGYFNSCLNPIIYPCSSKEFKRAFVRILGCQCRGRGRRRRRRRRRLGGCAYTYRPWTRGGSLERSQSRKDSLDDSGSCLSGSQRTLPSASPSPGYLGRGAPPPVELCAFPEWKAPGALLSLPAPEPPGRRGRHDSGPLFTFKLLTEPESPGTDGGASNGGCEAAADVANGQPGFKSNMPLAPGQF
Text: (§1) The first assay tested the ability of compounds of Formula I to bind to membrane bound receptors α1a-AR, α1b-AR and α1d-AR.
(§2) The DNA sequences of the three cloned human α1-AR subtypes have been published. […] We used published DNA sequence information to design primers for use in RT-PCR amplification of each subtype to obtain cloned cDNAs. Human poly A+ RNA was obtained from commercially available sources and included hippocampus and prostate samples, sources which have been cited in the literature. For the primary screen a radioligand binding assay was used which employed membrane preparations from cells expressing the individual cloned receptor cDNAs. Radiolabeled ligands with binding activity on all three subtypes (non-selective) are commercially available ([125I]-HEAT, [3H]-prazosin). Each α1 receptor subtype was cloned from poly A+ RNA by the standard method of reverse transcription-polymerase chain reaction (RT-PCR). The following sources of polyA+ RNA were used for the cloning of the α1 receptor subtypes: α1a-AR, human hippocampus and prostate, α1b-AR, human hippocampus, α1d-AR, human hippocampus. The resulting cDNAs were cloned into the pcDNA3 mammalian expression vector (Invitrogen Corp., San Diego Calif.). Each DNA was sequenced for verification and to detect any possible mutations introduced during the amplification process. Any deviation in sequence from the published consensus for each receptor subtype was corrected by site-directed mutagenesis.
(§3) The three α1-AR subtypes (a, b, d) were transfected into COS cells using a standard DEAE-dextran procedure with a chloroquine shock. In this procedure, each tissue culture dish (100 mm) was inoculated with 3.5×10^6 cells and transfected with 10 μg of DNA. Approximately 72 hours post-transfection, the cells were harvested and COS membranes were prepared. Transfected COS cells from 25 plates (100 mm) were scraped and suspended in 15 mL of TE buffer (50 mM Tris-HCl, 5 mM EDTA, pH 7.4). The suspension was disrupted with a homogenizer. It was then centrifuged at 1000× g for 10 minutes at 4° C. The supernatant was centrifuged at 34,500× g for 20 minutes at 4° C. The pellet was resuspended in 5 mL TNE buffer (50 mM Tris-HCl, 5 mM EDTA, 150 mM NaCl, pH 7.4). The resulting membrane preparation was aliquoted and stored at −70° C. The protein concentration was determined following membrane solubilization with TritonX-100.
(§4) The ability of each compound to bind to each of the α1-AR subtypes was assessed in a receptor binding assay. [125I]-HEAT, a non-selective α1-AR ligand, was used as the radiolabeled ligand. Each well of a 96-well plate received: 140 μL TNE, […] [125I]-HEAT diluted in TNE (50,000 cpm; final concentration 50 pM), 10 μL test compound diluted in DMSO (final concentration 1 pM-10 μM), […] COS cell membrane preparation expressing one of the three α1-AR subtypes (0.05-0.2 mg membrane protein). The plate was incubated for 1 hour at room temperature and the reaction mixtures were filtered through a Packard GF/C Unifilter filter plate. The filter plate was dried for 1 hour in a vacuum oven. Scintillation fluid ([…]) was added to each well, and the filter plate was counted in a Packard Topcount scintillation counter. Data was analyzed using GraphPad Prism software.
(§5) Tables A through D list the IC50 values expressed in nanomolar concentration for select compounds of the invention in all receptor subtypes.

α1d-AR = target: T2, α1d-AR (Homo sapiens, UniProt P25100); test: as above; conditions: [125I]-HEAT 50 pM, 1 hour room temperature
T2 construct: expressed in transfected cells; host or cells: COS cells, pcDNA3 vector, transient DEAE-dextran transfection
T2 sequence (P25100 1-572): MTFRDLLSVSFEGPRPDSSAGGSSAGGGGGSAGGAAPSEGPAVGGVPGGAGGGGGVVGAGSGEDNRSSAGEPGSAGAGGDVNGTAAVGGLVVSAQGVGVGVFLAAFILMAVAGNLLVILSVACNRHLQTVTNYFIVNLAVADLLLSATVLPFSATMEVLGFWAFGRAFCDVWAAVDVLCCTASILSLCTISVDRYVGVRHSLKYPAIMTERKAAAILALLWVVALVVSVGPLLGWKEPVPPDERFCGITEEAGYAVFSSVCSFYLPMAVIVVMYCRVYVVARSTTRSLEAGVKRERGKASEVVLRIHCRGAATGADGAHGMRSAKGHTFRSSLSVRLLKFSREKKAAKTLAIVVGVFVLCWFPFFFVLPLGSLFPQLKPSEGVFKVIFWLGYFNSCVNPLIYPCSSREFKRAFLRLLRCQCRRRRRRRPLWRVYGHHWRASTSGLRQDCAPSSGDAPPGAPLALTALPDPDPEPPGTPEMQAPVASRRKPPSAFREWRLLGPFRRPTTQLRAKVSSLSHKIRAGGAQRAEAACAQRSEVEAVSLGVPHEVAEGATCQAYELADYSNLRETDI
Text: as §1, §2, §3, §4, §5

What does the source list for `COc1ccc(N2C(=O)c3ccc(C(=O)NCC(O)CN4CCN(c5ccccc5OC(C)C)CC4)cc3C2=O)cc1` (centres unmarked) [Compound 55]?
IC50 (α1b-AR): > 2000 nM; IC50 (α1d-AR): 51 nM
